The IC50 is the concentration at which inhibition is half-maximal.

For the experiment, the target named is T1, AAK1 (GST-Xa-hAAK1) (Homo sapiens, UniProt Q2M2I8).
T1 construct: made in house
T1 sequence (Q2M2I8 whole entry): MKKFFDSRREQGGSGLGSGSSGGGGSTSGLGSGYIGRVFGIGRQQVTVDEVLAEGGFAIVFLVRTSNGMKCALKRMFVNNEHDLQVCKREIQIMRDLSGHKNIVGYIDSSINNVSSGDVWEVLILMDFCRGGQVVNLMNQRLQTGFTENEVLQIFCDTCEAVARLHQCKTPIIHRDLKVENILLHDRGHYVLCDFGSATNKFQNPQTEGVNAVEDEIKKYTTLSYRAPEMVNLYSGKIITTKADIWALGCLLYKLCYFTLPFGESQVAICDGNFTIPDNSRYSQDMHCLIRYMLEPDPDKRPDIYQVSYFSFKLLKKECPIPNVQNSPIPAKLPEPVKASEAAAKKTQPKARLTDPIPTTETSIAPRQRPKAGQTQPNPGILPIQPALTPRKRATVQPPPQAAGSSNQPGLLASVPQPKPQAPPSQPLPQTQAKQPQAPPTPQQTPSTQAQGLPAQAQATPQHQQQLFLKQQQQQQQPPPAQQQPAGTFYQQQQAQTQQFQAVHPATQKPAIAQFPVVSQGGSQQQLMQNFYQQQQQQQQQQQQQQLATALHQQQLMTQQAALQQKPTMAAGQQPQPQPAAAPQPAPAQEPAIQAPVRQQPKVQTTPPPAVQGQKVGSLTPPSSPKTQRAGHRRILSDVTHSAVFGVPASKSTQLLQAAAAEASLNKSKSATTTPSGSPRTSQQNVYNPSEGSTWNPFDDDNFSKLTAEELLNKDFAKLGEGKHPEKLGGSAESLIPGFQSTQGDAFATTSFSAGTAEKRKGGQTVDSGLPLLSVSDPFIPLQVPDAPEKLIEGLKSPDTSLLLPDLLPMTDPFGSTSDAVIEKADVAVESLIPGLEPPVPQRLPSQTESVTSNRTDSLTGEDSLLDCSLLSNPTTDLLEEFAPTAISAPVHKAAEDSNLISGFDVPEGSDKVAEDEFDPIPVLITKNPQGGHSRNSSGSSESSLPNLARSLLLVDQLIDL
The experiment can be described thus: AAK1 Kinase Assay (Caliper LabChip, fluoresceinated peptide substrate). Format: biochemical. As to conditions: AAK1 functional potency; class symbols; read-out: IC50 (nM), functional potency as IC50 ranges. The protocol: The assays were performed in U-bottom 384-well plates. The final assay volume was 30 μl prepared from 15 μl additions of enzyme and substrates (fluoresceinated peptide (5-FAM)-Aha-KEEQSQITSQVTGQIGWR-NH2 and ATP) and test compounds in assay buffer (10 mM Tris-HCL pH 7.4, 10 mM MgCl2, 0.01% Tween-20 and 1.0 mM DTT). The reactions were initiated by the combination of bacterially expressed, GST-Xa-hAAK1 with substrates and test compounds. The reactions were incubated at room temperature for 3 hours and terminated by adding 60 μl of 35 mM EDTA buffer to each sample. The reactions were analyzed on the Caliper LabChip 3000 (Caliper, Hopkinton, Mass.) by electrophoretic separation of the fluorescent substrate and phosphorylated product. Inhibition data were calculated by comparison to EDTA quenched control reactions for 100% inhibition and vehicle-only reactions for 0% inhibition. The final concentration of reagents in the assays are ATP, 22 μM; (5-FAM)-Aha-KEEQSQITSQVTGQIGWR-NH2, 1.5 μM; GST-Xa-hAAK1, 3.5 nM; and DMSO, 1.6%. Dose response curves were generated to determine the concentration required inhibiting 50% of kinase activity (IC50). Compounds were dissolved at 10 mM in dimethylsulfoxide (DMSO) and evaluated at eleven concentrations. IC50 values were derived by non-linear regression analysis.
As to `CC(=O)Nc1cc(-c2ccc3nc(C(N)C4CCCCC4)ccc3c2)ccn1` (centres unmarked) [Example 36], the half-maximal inhibitory concentration (IC50) fell in the range of 1 to 10 nM.

On to `CC(C)CC(N)c1cc(-c2nnn[nH]2)c2cc(-c3ccncc3)ccc2n1` (centres unmarked) [Example 37, 3-methyl-1-(6-(pyridin-4-yl)-4-(1H-tetrazol-5-yl)quinolin-2-yl)butan-1-amine], for which the half-inhibitory concentration (IC50) fell in the range of 1 to 10 nM.

In the case of `CC(C)CC(N)c1ccc2cc(-c3ccnc(NC4CC4)c3)ccc2n1` (centres unmarked) [Example 38, 4-(2-(1-amino-3-methylbutyl)quinolin-6-yl)-N-cyclopropylpyridin-2-amine], the IC50 lay in the range of 11 to 100 nM.

For the compound `N#Cc1cc(C(N)C2CCCCC2)nc2ccc(-c3ccncc3)cc12` (centres unmarked) [Example 41, 2-(amino(cyclohexyl)methyl)-6-(pyridin-4-yl)quinoline-4-carbonitrile], the half-maximal inhibitory concentration (IC50) fell in the range of 101 to 2500 nM.

As for `CC(C)CC(N)c1ccc2cc(-c3ccnc(NC(=O)c4ccc(C(F)(F)F)cc4)c3)ccc2n1` (centres unmarked) [Example 42, N-(4-(2-(1-amino-3-methylbutyl)quinolin-6-yl)pyridin-2-yl)-4-(trifluoromethyl)benzamide], the IC50 was 11 to 100 nM.

As to `CC(C)CC(N)c1cc(C#N)c2cc(-c3ccncc3)cc(F)c2n1` (centres unmarked) [Example 44, 2-(1-amino-3-methylbutyl)-8-fluoro-6-(pyridin-4-yl)quinoline-4-carbonitrile], the IC50 fell in the range of 11 to 100 nM.

On to `CC(=O)Nc1cc(-c2ccc3nc(C(O)CC(C)C)ccc3c2)ccn1` (centres unmarked) [Example 45, N-(4-(2-(1-hydroxy-3-methylbutyl)quinolin-6-yl)pyridin-2-yl)acetamide], for which the half-maximal inhibitory concentration (IC50) lay within 11 to 100 nM.

In the case of `CC(C)CC(N)c1ccc2cc(-c3ccnc(C4CC4)c3)ccc2n1` (centres unmarked) [Example 50, 1-(6-(2-cyclopropylpyridin-4-yl)quinolin-2-yl)-3-methylbutan-1-amine], the IC50 lay in the range of 101 to 2500 nM.

(Values after US9932320B2 (BRISTOL-MYERS SQUIBB COMPANY, priority 2014, dated 2018).)
